Results on 1 molecule are retold here after patent US20160089471A1, “SHEET FOR CUTANEOUS APPLICATION CONTAINING VITAMIN E OR AN ESTER THEREOF” (BIO.LO.GA. S.R.L., priority 2013, published 2016).

The test system of data set [1] is reconstituted human epidermis Epi-200 EpiDerm™. In words: Cytotoxicity by release of lactate dehydrogenase (LDH) in the culture medium. To be noted: 18-hour treatment; Tukey Kramer Multiple Comparisons Test.
Protocol: Tissue used: EPI-200-SIT EpiDerm™
Culture medium: EPI-100-MM-HCF-60
(§1) Incubation conditions: +37° C. in a 5% CO2 atmosphere
(§2) Treatment with the sample: • continuous contact and incubation for 18 hours (single) • continuous contact and incubation for 7 days (double)
(§3) Application was carried out by applying about 1 cm^2 of sample (i.e. of the sheet according to the invention obtained as per the example given above) per insert.
(§4) Controls Performed for the First Evaluation (18 hours): • Negative control after 18 hours: inserts not treated • Positive control: inserts treated with 0.5% SDS (Sodium Dodecylsulphate) in sterile water during 18 hours of incubation;
(§5) Controls Performed for the 7-Day Evaluation: • Negative control: inserts not treated with the sample and kept for 7 days in the same incubation conditions as those treated with the sample.
Evaluation of the Cytotoxicity by Means of Measurement of the Release of the Lactate Dehydrogenase (LDH) in the Culture Medium:
Evaluation in the culture medium obtained after the incubation period of the sample with the epidermis model. The culture medium is incubated with a specific reagent so as to allow quantitive determination of the lactate dehydrogenase at 490 nm.
Data set [2] has the same test system. In words: Release of IL-1α in the culture medium (ELISA). As to conditions: 18-hour treatment; Tukey Kramer Multiple Comparisons Test. In general terms: An ELISA detects its analyte on a solid surface through an enzyme-linked reagent.
Description: Further information for better defining the irritation potential was obtained from subsequent measurement of the following parameters: • evaluation of the release, in the culture medium, of the lactate dehydrogenase (LDH), a cytoplasmic enzyme, release of which indicates loss of integrity of the cellular membrane; • evaluation of the release, in the culture medium, of pro-inflammatory cytokine by means of ELISA (Enzyme Linked Immunosorbent Assay).
Tissue used: EPI-200-SIT EpiDerm™
Culture medium: EPI-100-MM-HCF-60
as §1, §2, §3
Controls Performed for the First Evaluation (18 hours): • Negative control after 18 hours: inserts not treated • Positive control: inserts treated with 0.5% SDS (Sodium Dodecylsulphate) in sterile water during 18 hours of incubation; […]
Evaluation in the culture medium obtained after the period of incubation of the sample with EPI-200. The release is measured by means of specific ELISA.
Data set [3] has the same test system. In words: Cellular vitality by MTT assay on reconstituted epidermis (EpiDerm Skin Irritation Test, cumulative irritation). As to conditions: 18-hour treatment. For orientation: Tetrazolium dyes change colour on reduction, which living cells bring about.
Protocol: The assay in question was based on the In vitro Epiderm™ Skin Irritation Test (EPI-200-SIT) developed by the MatTek Corporation, which uses the model of reconstituted human epidermis Epi-200 EpiDerm™.
The assay consists in topical application of the material under testing on the reconstituted epidermis for contact times equal to or greater than 18 hours. The irritation potential is determined by means of evaluation of the cellular vitality using the MTT assay.
Tissue used: EPI-200-SIT EpiDerm™
Culture medium: EPI-100-MM-HCF-60
as §1, §2, §4, §5
MTT assay: colorimetric determination of the vitality of the keratinocytes of the insert based on the reduction of the yellow tetrazolium salts (MTT) to blue formazan by mitochondrial dehydrogenases.
continuous stimulation (overnight contact and incubation)

Molecules are shown by their SMILES.

For `CCCCCCCCCCCCOS(=O)(=O)[O-].[Na+]` [Positive control, Sodium Dodecylsulphate], in data set [1], the “Statistical comparison of LDH release in relation to the negative control” value is on record as “*** (*** p < 0.001 extremely significant variation)”. In data set [2], the “Statistical comparison of IL-1α release in relation to the negative control” value was “*** (*** p < 0.001 extremely significant variation)”. The “Average value of OD ± SD” value in data set [3] (continuous contact) is given as 0.185 ± 0.004. Also, the “Average value of the % vitality” value in data set [3] (relative to negative control = 100%) is given as 8.40 ± 0.17%.
